Here are results for 16 compounds from PubChem BioAssay AID274 (DTP/NCI, 2004).

Values joined by “and” are separate entries in the source; they are usually repeats but may differ in a detail not shown here. Equal entries are not always repeated. Toxic doses and inconclusive results are not listed.

This assay concerns BDF1 mice, Lewis lung carcinoma iv, survival T/C. The experiment in a line: NCI In Vivo Anticancer Drug Screen. Data for tumor model Lewis Lung Carcinoma (intravenous) in B6D2F1 (BDF1) mice. The settings on record: endpoint: median survival time, higher = longer survival. The procedure:
The antitumor activity of compounds was measured in mice bearing transplantable tumors. Survival or tumor size were measured and the results are expressed as the measurement made in the treated group (T) divided by the measurement made in the vehicle treated control group (C). The tumor model used in this assay is Lewis Lung Carcinoma (intravenous) in B6D2F1 (BDF1) mice

Where [1] appears, read: dose: 25.0 mg/kg/injection, schedule: Q01DX009 (ip), vehicle: saline.
[2] abbreviates: dose: 50.0 mg/kg/injection, schedule: Q01DX009 (ip), vehicle: saline.
Setting [3] is: dose: 100.0 mg/kg/injection, schedule: Q01DX009 (ip), vehicle: saline.
Where [4] appears, read: dose: 1.0 mg/kg/injection, schedule: Q01DX009 (ip), vehicle: saline.
[5] abbreviates: dose: 100.0 mg/kg/injection, schedule: Q01DX009 (ip), vehicle: saline with Tween-80.
Setting [6] is: dose: 200.0 mg/kg/injection, schedule: Q01DX009 (ip), vehicle: saline with Tween-80.
Where [7] appears, read: dose: 400.0 mg/kg/injection, schedule: Q01DX009 (ip), vehicle: saline with Tween-80.
Where [8] appears, read: dose: 12.5 mg/kg/injection, schedule: Q01DX009 (ip), vehicle: saline with Tween-80.
The mark [9] stands for this setting: dose: 25.0 mg/kg/injection, schedule: Q01DX009 (ip), vehicle: saline with Tween-80.
Setting [10] is: dose: 50.0 mg/kg/injection, schedule: Q01DX009 (ip), vehicle: saline with Tween-80.

Turning to `COC1/C=C/C=C(/C)Cc2cc(O)c(Cl)c(c2)N(C)C(=O)CC(OC(=O)C(C)C)C2(C)OC2C(C)C2CC1(O)NC(=O)O2` (stereo not given), the T/C reads like this: (dose: 0.12 mg/kg/injection, schedule: Q01DX009 (ip), vehicle: saline + alcohol) 106 % of control; (dose: 0.25 mg/kg/injection, schedule: Q01DX009 (ip), vehicle: saline + alcohol) 110 % of control; (dose: 0.5 mg/kg/injection, schedule: Q01DX009 (ip), vehicle: saline + alcohol) 105 % of control; (dose: 1.0 mg/kg/injection, schedule: Q01DX009 (ip), vehicle: saline + alcohol) 105 % of control.
For the compound `CCCCCc1cc(/C=C2/N=C(c3ccc[nH]3)C=C2OC)[nH]c1C`, the T/C (dose: 0.25 mg/kg/injection, schedule: Q01DX009 (ip), vehicle: suspension in saline) is 94 % of control; the T/C (dose: 0.5 mg/kg/injection, schedule: Q01DX009 (ip), vehicle: suspension in saline) is 100 % of control; the T/C (dose: 1.0 mg/kg/injection, schedule: Q01DX009 (ip), vehicle: suspension in saline) is 103 % of control; the T/C (dose: 2.0 mg/kg/injection, schedule: Q01DX009 (ip), vehicle: suspension in saline) was 103 % of control; the T/C (dose: 4.0 mg/kg/injection, schedule: Q01DX009 (ip), vehicle: suspension in saline) is 106 % of control; the T/C (dose: 8.0 mg/kg/injection, schedule: Q01DX009 (ip), vehicle: suspension in saline) was 109 % of control.
For the compound `[N-]=[N+]=CC(=O)CCC(N)C(=O)O` (stereo not given), the T/C runs as follows: (dose: 0.01 mg/kg/injection, schedule: Q01DX009 (ip), vehicle: saline) 95 % of control; (dose: 0.02 mg/kg/injection, schedule: Q01DX009 (ip), vehicle: saline) 98 % of control; (dose: 0.05 mg/kg/injection, schedule: Q01DX009 (ip), vehicle: saline) 108 % of control; (dose: 0.1 mg/kg/injection, schedule: Q01DX009 (ip), vehicle: saline) 109 % of control and 111 % of control.
Consider `c1ccc(CN2CCOC2)cc1`, for which the T/C is 96 % of control (dose: 12.5 mg/kg/injection, schedule: Q01DX009 (ip), vehicle: saline); 107 % of control under setting [1]; 116 % of control under setting [2]; 99 % of control under setting [3].
For the compound `O=C1C(=O)c2ccccc2C(O)=C1CC=C(Cl)Cl`, the T/C is, setting by setting: (dose: 12.5 mg/kg/injection, schedule: Q01DX009 (ip), vehicle: Klucel (hydroxypropylcellulose) (HPC)) 104 % of control; (dose: 25.0 mg/kg/injection, schedule: Q01DX009 (ip), vehicle: Klucel (hydroxypropylcellulose) (HPC)) 93 % of control; (dose: 50.0 mg/kg/injection, schedule: Q01DX009 (ip), vehicle: Klucel (hydroxypropylcellulose) (HPC)) 91 % of control.
Turning to `O=C1OC(C(O)CO)C(O)=C1O` (stereo not given), the T/C is 112 % of control (dose: 200.0 mg/kg/injection, schedule: Q01DX009 (ip), vehicle: saline) and 100 % of control (dose: 400.0 mg/kg/injection, schedule: Q01DX009 (ip), vehicle: saline).
Consider `[Cl][Mn][Cl]`, for which the T/C runs as follows: under setting [4], 109 % of control; (dose: 2.0 mg/kg/injection, schedule: Q01DX009 (ip), vehicle: saline) 99 % of control; (dose: 4.0 mg/kg/injection, schedule: Q01DX009 (ip), vehicle: saline) 105 % of control and 90 % of control; (dose: 8.0 mg/kg/injection, schedule: Q01DX009 (ip), vehicle: saline) 101 % of control and 121 % of control; (dose: 16.0 mg/kg/injection, schedule: Q01DX009 (ip), vehicle: saline) 91 % of control and 101 % of control; (dose: 32.0 mg/kg/injection, schedule: Q01DX009 (ip), vehicle: saline) 94 % of control and 98 % of control. The T/C (dose: 64.0 mg/kg/injection, schedule: Q01DX009 (ip), vehicle: saline) was 96 % of control and 108 % of control.
Turning to `O=S(=O)(O)O`, the T/C is, setting by setting: (dose: 1.0 mg/kg/injection, schedule: Q01DX009 (ip), vehicle: saline with Tween-80) 91 % of control; (dose: 2.0 mg/kg/injection, schedule: Q01DX009 (ip), vehicle: saline with Tween-80) 86 % of control; (dose: 4.0 mg/kg/injection, schedule: Q01DX009 (ip), vehicle: saline with Tween-80) 86 % of control; (dose: 8.0 mg/kg/injection, schedule: Q01DX009 (ip), vehicle: saline with Tween-80) 97 % of control.
As for `CN1c2ccc3ccccc3c2Sc2ccc3ccccc3c21`, the T/C by setting is: under setting [5], 98 % of control; under setting [6], 98 % of control; under setting [7], 111 % of control.
`c1ccc2c(c1)nnn1c3cnccc3nc21`: the T/C (dose: 1.56 mg/kg/injection, schedule: Q01DX009 (ip), vehicle: saline with Tween-80) is 103 % of control; the T/C (dose: 3.12 mg/kg/injection, schedule: Q01DX009 (ip), vehicle: saline with Tween-80) is 90 % of control; the T/C (dose: 6.25 mg/kg/injection, schedule: Q01DX009 (ip), vehicle: saline with Tween-80) was 103 % of control; the T/C under setting [8] is 109 % of control.
For `O=NN(CCCl)C(=O)NCCCl`, the T/C runs as follows: (dose: 1.5 mg/kg/injection, schedule: Q01DX009 (ip), vehicle: Klucel (hydroxypropylcellulose) (HPC)) 122 % of control; (dose: 3.0 mg/kg/injection, schedule: Q01DX009 (ip), vehicle: Klucel (hydroxypropylcellulose) (HPC)) 305 % of control; (dose: 6.0 mg/kg/injection, schedule: Q01DX009 (ip), vehicle: Klucel (hydroxypropylcellulose) (HPC)) 163 % of control; (dose: 10.0 mg/kg/injection, schedule: Q01DX001 (ip), vehicle: saline + alcohol) 116 % of control; (dose: 12.0 mg/kg/injection, schedule: Q01DX009 (ip), vehicle: Klucel (hydroxypropylcellulose) (HPC)) 304 % of control; (dose: 20.0 mg/kg/injection, schedule: Q01DX001 (ip), vehicle: saline + alcohol) 124 % of control. In addition, the T/C by setting is: (dose: 20.48 mg/kg/injection, schedule: Q01DX001 (iv), vehicle: saline + alcohol) 215 % of control; (dose: 25.6 mg/kg/injection, schedule: Q01DX001 (iv), vehicle: saline + alcohol) 268 % of control; (dose: 32.0 mg/kg/injection, schedule: Q01DX001 (iv), vehicle: saline + alcohol) 267 % of control; (dose: 40.0 mg/kg/injection, schedule: Q01DX001 (ip), vehicle: saline + alcohol) 109 % of control; (dose: 40.0 mg/kg/injection, schedule: Q01DX001 (iv), vehicle: saline + alcohol) 268 % of control; (dose: 50.0 mg/kg/injection, schedule: Q01DX001 (ip), vehicle: saline + alcohol) 117 % of control. For the same compound, the T/C is 268 % of control (dose: 50.0 mg/kg/injection, schedule: Q01DX001 (iv), vehicle: saline + alcohol) and 268 % of control (dose: 62.5 mg/kg/injection, schedule: Q01DX001 (iv), vehicle: saline + alcohol).
For `O=C1N(Cl)C(=O)C(c2ccc(Cl)cc2)(c2ccc(Cl)cc2)N1Cl`, the T/C is 101 % of control under setting [8]; 96 % of control under setting [9]; 103 % of control under setting [10]; 101 % of control under setting [5]; 103 % of control under setting [6]; 113 % of control under setting [7].
Regarding `NC(=O)C(F)C(N)C(=O)O` (stereo not given), the T/C by setting is: under setting [1], 99 % of control; under setting [2], 100 % of control; under setting [3], 103 % of control.
Take `CNc1cccnc1/C=N/NC(N)=S`: the T/C (dose: 12.0 mg/kg/injection, schedule: Q01DX009 (ip), vehicle: saline with Tween-80) was 100 % of control; the T/C under setting [9] is 103 % of control; the T/C under setting [10] was 102 % of control; the T/C under setting [5] was 115 % of control.
For `O=C(NCCCN1CC1)C(=O)NCCCN1CC1`, the T/C reads like this: (dose: 0.75 mg/kg/injection, schedule: Q01DX009 (ip), vehicle: saline) 110 % of control; (dose: 1.5 mg/kg/injection, schedule: Q01DX009 (ip), vehicle: saline) 114 % of control; (dose: 3.0 mg/kg/injection, schedule: Q01DX009 (ip), vehicle: saline) 120 % of control.
Regarding `CC(=O)O[C@@H]1C(=O)C=C(C)[C@@H]2[C@@H](OC(=O)C=C(C)C)[C@H]3OC(=O)C[C@H]4[C@@H](C)[C@@H](O)[C@]5(O)OC[C@]34[C@H]5[C@@]12C`, the T/C (dose: 0.12 mg/kg/injection, schedule: Q01DX009 (ip), vehicle: saline) was 107 % of control; the T/C (dose: 0.25 mg/kg/injection, schedule: Q01DX009 (ip), vehicle: saline) was 106 % of control; the T/C (dose: 0.5 mg/kg/injection, schedule: Q01DX009 (ip), vehicle: saline) was 102 % of control; the T/C under setting [4] is 107 % of control.
